# According to US20260166046A1, “Inhibitors of methionine aminopeptidase-2 and methods of preparation and uses thereof” (Primetime Life Sciences LLC, priority 2022, published 2026):
# Read-outs that look alike come from different tables or passages of the source.
# Assays:
# G. lamblia WB = experiment: Trophozoite viability IC50 determination, Giardia assay (ATPLite); format: cell-based; settings: Giardia duodenalis, read-out: Cell viability values Mean IC50 (nM) G. lamblia WB
# Method: (§1) Giardia cultures: Trophozoites of G. lamblia isolates WB and GS were grown anaerobically in borosilicate glass screw-cap culture tubes (Fisher Scientific) at pH 7.0 in modified TYI-S-33 medium. The medium was supplemented with 10% heat-inactivated bovine serum (Sigma-Aldrich) and 0.05% bovine bile (Sigma-Aldrich). To attain low-oxygen-tension conditions, the tubes were filled to 85 to 90% of their total volume capacity and incubated without shaking at 37° C. Subcultures (2×10^5 trophozoites per tube) were made three times a week. Detachment of trophozoites for inoculation was achieved by chilling the cultures on ice for 20 min. Culturing and detachment of Metronidazole-resistant G. lamblia Assemblage A 713M3 and assemblage B 1279-M1 trophozoites followed the same protocol, except that the growth medium was supplemented with metronidazole gradually increasing the concentration to 10 μM. Amebae cultures: E. histolytica strain HM1:IMSS trophozoites were grown at 37° C. in TYI-S-33 medium supplemented with penicillin (100 U/mL) and streptomycin sulfate (100 μg/mL). Trophozoites were grown anaerobically in borosilicate tubes and subcultures were made 1-2 times a week. Trophozoites were detached for inoculation by chilling the cultures on ice for 20 minutes.
# (§2) Trophozoite viability IC50determination
# (§3) Giardia assays: 10 μL giardia trophozoites in growth medium were plated at a density of 10,000 cells/well in sterile 96-well black clear bottom assay plates. Fumagillin and fumagillol derivatives were 1:3 serially diluted from a 1 μM DMSO stock solution and then 100 μL/well were transferred in duplicate to the assay wells. Metronidazole (control) was 1:3 serially diluted in growth medium from a 100 μM stock solution in DMSO. The assay plates were placed in a BD GasPak™ EZ Container System (BD Diagnostics) to create an anaerobic growth environment. The sealed containers were incubated at 37° C. for 72 hr. Following incubation, 70 μL/well of the ATPLite reagent (PerkinElmer) was added to the assay plates for one-step lysis and ATP level detection. The luminescent signals of the assay plates were measured on an EnSpire 2300 plate reader (PerkinElmer). Concentration response titration points for each compound were fitted to a 4-parameters logistic nonlinear regression model using KaleidaGraph, yielding the IC50value and standard error (SE).
# G. lamblia GS = experiment: as above; format: cell-based; settings: read-out: Cell viability values Mean IC50 (nM) G. lamblia GS
# Method: as §1, §2, §3
# E. histolytica HM1: IMSS = experiment: Trophozoite viability IC50 determination, Amebae assay (ATPLite); format: cell-based; settings: Entamoeba histolytica, read-out: Cell viability values Mean IC50 (nM) E. histolytica HM1: IMSS
# Method: as §1, §2, §3
# Amebae assays: The protocol is identical to that described above except that the trophozoites were plated at a density of 5000 cells/well because of their larger size.
# Recombinant human MetAP2 = molecular target: T1, Recombinant human MetAP2 (Homo sapiens, UniProt P50579); experiment: MetAP2 fluorescence assay; format: biochemical; settings: recombinant human MetAP2, H-Met-Gly-Pro-AMC substrate
# T1 construct: purchased Bio-Techne/R&D systems
# Method: MetAP2 Fluorescence Assay
# Recombinant human MetAP2 (Bio-Techne/R&D systems) was diluted to 10 μg/mL in the assay buffer (50 mM HEPES, 0.1 mM CoCl2, 100 mM NaCl, pH 7.5). The substrate, H-Met-Gly-Pro-AMC (Bio-Techne/R&D systems), was diluted to 500 μM with 2 μg/mL of the coupling enzyme, recombinant human dipeptidyl peptidase-4 (Bio-Techne/R&D systems), in assay buffer. 50 μL of 10 μg/mL recombinant human METAP2 were loaded into a flat-bottom black 96-well plate (Greiner Bio), and the reaction was initiated by adding 50 μL of the substrate/dipeptidyl peptidase-4 mixture. The reaction mixture was incubated at room temperature for 10 minutes, and the fluorescence was measured for 5 minutes at excitation and emission wavelengths of 380 nm and 460 nm, respectively, in kinetic mode. For IC50determination, 0.5 μL inhibitor solution was added to the reaction mixture. The reaction rates were used to calculate IC50with KaleidaGraph.
# [1] = trophozoites, 72 hr, anaerobic, ATP level
# [2] = Giardia duodenalis, trophozoites, 72 hr, anaerobic, ATP level
# T1 sequence (P50579 whole entry): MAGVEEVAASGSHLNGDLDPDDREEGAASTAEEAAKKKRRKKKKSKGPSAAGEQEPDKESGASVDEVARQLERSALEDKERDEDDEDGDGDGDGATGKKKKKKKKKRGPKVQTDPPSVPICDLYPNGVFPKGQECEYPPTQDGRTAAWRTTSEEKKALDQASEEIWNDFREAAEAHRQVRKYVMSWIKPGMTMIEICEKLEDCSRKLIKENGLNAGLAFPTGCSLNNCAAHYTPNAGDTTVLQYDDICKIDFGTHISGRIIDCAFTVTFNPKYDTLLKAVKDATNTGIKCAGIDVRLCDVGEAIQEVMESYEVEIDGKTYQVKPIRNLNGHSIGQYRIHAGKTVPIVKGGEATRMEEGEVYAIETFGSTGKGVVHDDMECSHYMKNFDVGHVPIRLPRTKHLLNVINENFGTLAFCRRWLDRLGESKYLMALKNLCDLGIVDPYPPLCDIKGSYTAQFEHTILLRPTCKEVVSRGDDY
Compound,IC50 (G. lamblia WB; [1]) [nM],IC50 (G. lamblia GS; [2]) [nM],IC50 (E. histolytica HM1: IMSS; [1]) [nM],IC50 (Recombinant human MetAP2) [nM],IC50 (G. lamblia WB; 72 h) [nM],"IC50 (G. lamblia GS; Giardia duodenalis, 72 h) [nM]",IC50 (E. histolytica HM1: IMSS; 72 h) [nM],IC50 (G. lamblia GS; [1]) [nM]
"CO[C@@H]1[C@H](OC(=O)Nc2ccc3c(c2)COB3O)CC[C@]2(CO2)[C@H]1[C@@]1(C)O[C@@H]1CC=C(C)C [No 1, (3R,4S,5S,6R)-5-methoxy-4-((2R,3R)-2-methyl-3-(3-methylbut-2-en-1-yl)oxiran-2-yl)-1-oxaspiro[2.5]octan-6-yl (1-hydroxy-1,3-dihydrobenzo[c][1,2]oxaborol-5-yl)carbamate]",< 10,< 10,< 10,,,,,
CO[C@@H]1[C@H](OC(=O)Nc2ccc3c(c2)C(C)OB3O)CC[C@]2(CO2)[C@H]1[C@@]1(C)O[C@@H]1CC=C(C)C (stereo partly shown) [No 2],< 10,< 10,< 10,< 10,,,,
CO[C@@H]1[C@H](OC(=O)Nc2ccc3c(c2)C(C)(C)OB3O)CC[C@]2(CO2)[C@H]1[C@@]1(C)O[C@@H]1CC=C(C)C [No 3],,,,< 10,< 10,< 10,< 10,
CO[C@@H]1[C@H](OC(=O)Nc2cc3c(cc2F)B(O)OC3(C)C)CC[C@]2(CO2)[C@H]1[C@@]1(C)O[C@@H]1CC=C(C)C [No 4],,,,< 10,,,,< 10
CO[C@@H]1[C@H](OC(=O)N(C)c2ccc3c(c2)COB3O)CC[C@]2(CO2)[C@H]1[C@@]1(C)O[C@@H]1CC=C(C)C [No 5],,,,< 10,,,,
CO[C@@H]1[C@H](OC(=O)Nc2ccc3c(c2)B(O)OC3)CC[C@]2(CO2)[C@H]1[C@@]1(C)O[C@@H]1CC=C(C)C [No 6],,,,< 10,10.1 to 100,< 10,10.1 to 100,
CO[C@@H]1[C@H](OC(=O)Nc2ccc3c(c2)B(O)OC3C)CC[C@]2(CO2)[C@H]1[C@@]1(C)O[C@@H]1CC=C(C)C (stereo partly shown) [No 7],,,,< 10,,,,< 10
CO[C@@H]1[C@H](OC(=O)Nc2cc(F)c3c(c2)B(O)OC3)CC[C@]2(CO2)[C@H]1[C@@]1(C)O[C@@H]1CC=C(C)C [No 8],,,,< 10,,,,< 10
CO[C@@H]1[C@H](OC(=O)Nc2cc(Cl)c3c(c2)B(O)OC3)CC[C@]2(CO2)[C@H]1[C@@]1(C)O[C@@H]1CC=C(C)C [No 10],,,,< 10,10.1 to 100,10.1 to 100,10.1 to 100,
CO[C@@H]1[C@H](OC(=O)Nc2cccc3c2COB3O)CC[C@]2(CO2)[C@H]1[C@@]1(C)O[C@@H]1CC=C(C)C [No 12],,,,< 10,101 to 1000,10.1 to 100,101 to 1000,
CO[C@@H]1[C@H](OC(=O)Nc2ccc3c(c2)CCOB3O)CC[C@]2(CO2)[C@H]1[C@@]1(C)O[C@@H]1CC=C(C)C [No 13],,,,< 10,10.1 to 100,< 10,101 to 1000,
CO[C@@H]1[C@H](OC(=O)Nc2ccc3c(c2)B(O)OCC3)CC[C@]2(CO2)[C@H]1[C@@]1(C)O[C@@H]1CC=C(C)C [No 14],,,,< 10,101 to 1000,10.1 to 100,101 to 1000,
CO[C@@H]1[C@H](OC(=O)N(C)c2ccc3c(c2)CCOB3O)CC[C@]2(CO2)[C@H]1[C@@]1(C)O[C@@H]1CC=C(C)C [No 15],,,,< 10,101 to 1000,101 to 1000,101 to 1000,
CO[C@@H]1[C@H](OC(=O)N(C)c2ccc3c(c2)B(O)OCC3)CC[C@]2(CO2)[C@H]1[C@@]1(C)O[C@@H]1CC=C(C)C [No 16],101 to 1000,101 to 1000,101 to 1000,< 10,,,,
CO[C@@H]1[C@H](OC(=O)Nc2ccc(B(O)O)cc2)CC[C@]2(CO2)[C@H]1[C@@]1(C)O[C@@H]1CC=C(C)C [No 17],10.1 to 100,< 10,10.1 to 100,< 10,,,,
CO[C@@H]1[C@H](OC(=O)Nc2cccc(B(O)O)c2)CC[C@]2(CO2)[C@H]1[C@@]1(C)O[C@@H]1CC=C(C)C [No 18],,,,< 10,101 to 1000,10.1 to 100,101 to 1000,
CO[C@@H]1[C@H](OC(=O)Nc2ccccc2B(O)O)CC[C@]2(CO2)[C@H]1[C@@]1(C)O[C@@H]1CC=C(C)C [No 19],,,,< 10,101 to 1000,10.1 to 100,101 to 1000,
COC(=O)c1ccc(B(O)O)c(NC(=O)OC2CCC3(CO3)C(C3(C)OC3CC=C(C)C)C2OC)c1 (stereo not shown) [No 26],,,,,> 1000,101 to 1000,> 1000,
COC(=O)c1cc(NC(=O)OC2CCC3(CO3)C(C3(C)OC3CC=C(C)C)C2OC)cc(B(O)O)c1 (stereo not shown) [No 27],,,,,101 to 1000,101 to 1000,101 to 1000,
COC1C(OC(=O)NCc2ccc(F)cc2B(O)O)CCC2(CO2)C1C1(C)OC1CC=C(C)C (stereo not shown) [No 32],,,,,> 1000,101 to 1000,> 1000,
COC1C(OC(=O)NCc2cc(C#N)cc(B(O)O)c2)CCC2(CO2)C1C1(C)OC1CC=C(C)C (stereo not shown) [No 36],,,,,> 1000,101 to 1000,> 1000,
CO[C@@H]1[C@H](OC(=O)NCCc2ccccc2B(O)O)CC[C@]2(CO2)[C@H]1[C@@]1(C)O[C@@H]1CC=C(C)C [No 39],,,,< 10,> 1000,101 to 1000,,
COC1C(OC(=O)NCc2cncc(B(O)O)c2)CCC2(CO2)C1C1(C)OC1CC=C(C)C (stereo not shown) [No 42],,,,,> 1000,101 to 1000,> 1000,
COC1C(OC(=O)N2CCC(n3cc(B(O)O)cn3)CC2)CCC2(CO2)C1C1(C)OC1CC=C(C)C (stereo not shown) [No 46],,,,,> 1000,101 to 1000,> 1000,
COC1C(OC(=O)N2CC(B(O)O)Cn3ccnc32)CCC2(CO2)C1C1(C)OC1CC=C(C)C (stereo not shown) [No 56],,,,,> 1000,101 to 1000,> 1000,
COc1nsc(CNC(=O)OC2CCC3(CO3)C(C3(C)OC3CC=C(C)C)C2OC)c1B(O)O (stereo not shown) [No 57],,,,,> 1000,101 to 1000,> 1000,
COC1C(OC(=O)NCCn2cc(B(O)O)cn2)CCC2(CO2)C1C1(C)OC1CC=C(C)C (stereo not shown) [No 61],,,,,> 1000,101 to 1000,> 1000,
COC1C(OC(=O)N2CCOc3c(B(O)O)cncc32)CCC2(CO2)C1C1(C)OC1CC=C(C)C (stereo not shown) [No 66],,,,,> 1000,101 to 1000,> 1000,
